Results from the supplement of paper PMC11208160.

Test: recombinant barcode read abundance after kanamycin selection (control-corrected) (log10(CPM+1)); higher = more efficient recombination; sequences stand for … in AGTGCAGAGAAAATCGGCCAGTTTTCTCTGCCTGCAGTCCGCATGCCGT…AGATTTATGCAGCGGACTGCCTTTCTCCCAAAGTGATAAACCGGACAGTATCATGGACCGGTTTTCCCGGTAATCCGTATTTGCAAGGTTGGTTTCACT; site = the 11-nt target
In short: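 In a pooled screen in E. coli, targets were paired with target-binding loops of the IS621 bridge RNA. Each oligo carried a promoter, a target, a barcode and the first 104 bridge RNA bases driven by J23119, and was Gibson-cloned into a vector holding the remaining 73 bp and a T7-inducible recombinase before co-electroporation with a donor plasmid. Duplicate platings went onto chloramphenicol/ampicillin LB agar as the control or onto chloramphenicol/ampicillin/kanamycin with 0.1 mM IPTG. Recombination efficiency is the averaged, control-corrected count per million of barcodes at recombinant junctions, given as log10(CPM+1).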
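Also: IS621 recombinase and bridge RNA in Escherichia coli cells.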

In order of rising “recombinant barcode read abundance (log10)” value:
1. TCTTATACTTGGGTTCTAACCTGTTGCGT (site TCTTATACTAT)  0
2. TGAAATACTTGGGTTCTAACCTGTTGCCT (site TGAAGTACTAG)  0
3. TGAAATACTTGGGTTCTAACCTGTTGCCT (site TGAATTACTAG)  0.00965
4. TGAAATGCTTGGGTTCTAACCTGTTGCCT (site TGACATGCTAG)  0.0158
5. TGAAGTCCTTGGGTTCTAACCTGTTGCGG (site CGACGTCCTCC)  0.0219
6. TGACCTTCTTGGGTTCTAACCTGTTGCCT (site TGACGTTCTAG)  0.0226
7. TGAAATACTTGGGTTCTAACCTGTTGCCT (site TGAACTACTAG)  0.0246
8. TCTTATTCTTGGGTTCTAACCTGTTGCCT (site TCTTATTCTAG)  0.0342
9. TGAACGTCTTGGGTTCTAACCTGTTGCCT (site TGAAGGTCTAG)  0.0344
10. TGAACTACTTGGGTTCTAACCTGTTGCCT (site TGAAATACTAG)  0.0445
11. TCTTATTCTTGGGTTCTAACCTGTTGCCT (site TCTGATTCTCG)  0.062
12. TGACCAGCTTGGGTTCTAACCTGTTGCCT (site TGAGAAGCTAG)  0.0639
13. TGAACTACTTGGGTTCTAACCTGTTGCCT (site TGAATTACTAG)  0.065
14. TCTTGGACTTGGGTTCTAACCTGTTGCTG (site TCTTGGACTTA)  0.0733
15. TCTTGGACTTGGGTTCTAACCTGTTGCTG (site TCTTGGACTCA)  0.0828
16. TGAACTACTTGGGTTCTAACCTGTTGCCT (site TGAAGTACTAG)  0.0835
17. TGAACGCCTTGGGTTCTAACCTGTTGCCT (site AGTACGCCTAG)  0.0861
18. TCTTGTTCTTGGGTTCTAACCTGTTGCCT (site GCTTGTTCTAG)  0.0895
19. TCTTGTTCTTGGGTTCTAACCTGTTGCCT (site TCTTGTTCTAG)  0.145
20. TCTTGGACTTGGGTTCTAACCTGTTGCTG (site TCTTGGACTAA)  0.159
21. TCTTGGACTTGGGTTCTAACCTGTTGCTG (site TCTTGGACTGA)  0.174
22. TCTTGTTCTTGGGTTCTAACCTGTTGCCT (site CCTTGTTCTAG)  0.179
23. TGAACTACTTGGGTTCTAACCTGTTGCCT (site TGAACTACTAG)  0.192
24. TCTTAGGCTTGGGTTCTAACCTGTTGCGT (site TCCTAGGCTGC)  0.21
25. TCTGGGGCTTGGGTTCTAACCTGTTGCTG (site TCTGGGGCTCC)  0.216
26. TGAAATACTTGGGTTCTAACCTGTTGCCT (site TGAAATACTAG)  0.232
27. TGAACGTCTTGGGTTCTAACCTGTTGCCT (site TGAAAGTCTAG)  0.232
28. TGAAATGCTTGGGTTCTAACCTGTTGCCT (site TGAGATGCTAG)  0.256
29. TGACAGGCTTGGGTTCTAACCTGTTGCAG (site GTACAGGCTCT)  0.278
30. TGAAATGCTTGGGTTCTAACCTGTTGCCT (site TGATATGCTAG)  0.288
31. TGAAATGCTTGGGTTCTAACCTGTTGCCT (site TGAAATGCTAG)  0.329
32. TGAACGTCTTGGGTTCTAACCTGTTGCCT (site TGAATGTCTAG)  0.378
33. TCTTGTTCTTGGGTTCTAACCTGTTGCCT (site ACTTGTTCTAG)  0.383
34. TGAACGTCTTGGGTTCTAACCTGTTGCCT (site TGAACGTCTAG)  0.384
35. TGAACGCCTTGGGTTCTAACCTGTTGCCT (site TGAACGCCTAG)  0.39
36. TCTTATACTTGGGTTCTAACCTGTTGCGT (site TCTTATACTAC)  0.403
37. TGACCTTCTTGGGTTCTAACCTGTTGCCT (site TGACCTTCTAG)  0.526
38. TCTGGGGCTTGGGTTCTAACCTGTTGCTG (site TCTGGGGCTCG)  0.792
39. TCTGGGGCTTGGGTTCTAACCTGTTGCTG (site TCTGGGGCTCT)  0.936
40. TGACCAGCTTGGGTTCTAACCTGTTGCCT (site TGACCAGCTAG)  1.05
41. TGAAGTCCTTGGGTTCTAACCTGTTGCGG (site TGAAGTCCTCC)  1.25
42. TCTTAGGCTTGGGTTCTAACCTGTTGCGT (site TCTTAGGCTAC)  1.63
43. TGACAGGCTTGGGTTCTAACCTGTTGCAG (site TGACAGGCTCT)  1.88
